# PubChem BioAssay AID2060887 (Molecular Pharmacology Branch, DTP, NCI, 2025)
# Tested on: 782815-120-R-J1-PDC complex spheroid viability
# Test: Anticancer human tumor 782815-120-R-J1-PDC patient-derived colon adenocarcinoma cell line growth inhibition [RAS]
# Details: for IC50: curve of first compound; for viability, T/C: stronger effect = lower value
# In short: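 Tumour cells grown as complex spheroids with HUVEC endothelial cells and mesenchymal stem cells, treated with RAS pathway inhibitor combinations. Each agent spans half-log steps from near clinical Cmax, or 10 microM where Cmax is unknown.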
# [1] = second compound 0.000949 µM, first compound 0.00316 µM
# [2] = second compound 0.000949 µM, first compound 0.01 µM
# [3] = second compound 0.000949 µM, first compound 0.0316 µM
# [4] = second compound 0.000949 µM, first compound 0.1 µM
# [5] = second compound 0.000949 µM, first compound 0.316 µM
# [6] = second compound 0.000949 µM, first compound 1 µM
# [7] = second compound 0.003 µM, first compound 0.00316 µM
# [8] = second compound 0.003 µM, first compound 0.01 µM
# [9] = second compound 0.003 µM, first compound 0.0316 µM
# [10] = second compound 0.003 µM, first compound 0.1 µM
# [11] = second compound 0.003 µM, first compound 0.316 µM
# [12] = second compound 0.003 µM, first compound 1 µM
# [13] = second compound 0.00949 µM, first compound 0.00316 µM
# [14] = second compound 0.00949 µM, first compound 0.01 µM
# [15] = second compound 0.00949 µM, first compound 0.0316 µM
# [16] = second compound 0.00949 µM, first compound 0.1 µM
# [17] = second compound 0.00949 µM, first compound 0.316 µM
# [18] = second compound 0.00949 µM, first compound 1 µM
# [19] = second compound 0.03 µM, first compound 0.00316 µM
# [20] = second compound 0.03 µM, first compound 0.01 µM
# [21] = second compound 0.03 µM, first compound 0.0316 µM
# [22] = second compound 0.03 µM, first compound 0.1 µM
# [23] = second compound 0.03 µM, first compound 0.316 µM
# [24] = second compound 0.03 µM, first compound 1 µM
# [25] = second compound 0.0949 µM, first compound 0.00316 µM
# [26] = second compound 0.0949 µM, first compound 0.01 µM
# [27] = second compound 0.0949 µM, first compound 0.0316 µM
# [28] = second compound 0.0949 µM, first compound 0.1 µM
# [29] = second compound 0.0949 µM, first compound 0.316 µM
# [30] = second compound 0.0949 µM, first compound 1 µM
# [31] = second compound 0.3 µM, first compound 0.00316 µM
# [32] = second compound 0.3 µM, first compound 0.01 µM
# [33] = second compound 0.3 µM, first compound 0.0316 µM
# [34] = second compound 0.3 µM, first compound 0.1 µM
# [35] = second compound 0.3 µM, first compound 0.316 µM
# [36] = second compound 0.3 µM, first compound 1 µM
# 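Note: spheroids exposed to compounds for 7 days before reading.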
# 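Throughout, for viability, T/C: 100% = DMSO vehicle control viability.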
smiles,measurement,setting,value
C=CC(=O)N1CCN(c2nc(OCC3CCCN3C)nc3c(F)c(-c4nc(N)cc(C)c4C(F)(F)F)c(Cl)cc23)C(C)C1 (stereo not drawn) + CCn1c(-c2cc(N3CCN(C)CC3)cnc2C(C)OC)c2c3cc(ccc31)-c1csc(n1)CC(NC(=O)C1CC1C)C(=O)N1CCCC(N1)C(=O)OCC(C)(C)C2,IC50,second compound 0.000949 µM,> 1000 nM
same,IC50,second compound 0.003 µM,> 1000 nM
same,IC50,second compound 0.00949 µM,< 3.16 nM
same,IC50,second compound 0.03 µM,< 3.16 nM
same,IC50,second compound 0.0949 µM,< 3.16 nM
same,IC50,second compound 0.3 µM,< 3.16 nM
same,"viability, T/C",[1],82.5%
same,"viability, T/C",[2],74.3%
same,"viability, T/C",[3],70%
same,"viability, T/C",[4],79.5%
same,"viability, T/C",[5],77.1%
same,"viability, T/C",[6],90%
same,"viability, T/C",[7],57.1%
same,"viability, T/C",[8],56.9%
same,"viability, T/C",[9],57.9%
same,"viability, T/C",[10],49.6%
same,"viability, T/C",[11],55%
same,"viability, T/C",[12],57.2%
same,"viability, T/C",[13],31.1%
same,"viability, T/C",[14],32%
same,"viability, T/C",[15],36.7%
same,"viability, T/C",[16],29.8%
same,"viability, T/C",[17],31.6%
same,"viability, T/C",[18],31%
same,"viability, T/C",[19],19.6%
same,"viability, T/C",[20],22%
same,"viability, T/C",[21],17.9%
same,"viability, T/C",[22],20.6%
same,"viability, T/C",[23],18.1%
same,"viability, T/C",[24],19.8%
same,"viability, T/C",[25],16%
same,"viability, T/C",[26],14.3%
same,"viability, T/C",[27],16.1%
same,"viability, T/C",[28],15.5%
same,"viability, T/C",[29],15.2%
same,"viability, T/C",[30],13.5%
same,"viability, T/C",[31],16.1%
same,"viability, T/C",[32],16.3%
same,"viability, T/C",[33],15.6%
same,"viability, T/C",[34],16.5%
same,"viability, T/C",[35],16.2%
same,"viability, T/C",[36],13.6%
CC1(C)CCC(Nc2ncc(C(F)(F)F)c(-c3c[nH]c4c(P(C)(C)=O)c(C#N)ccc34)n2)CN1 (stereo not drawn) + CCn1c(-c2cc(N3CCN(C)CC3)cnc2C(C)OC)c2c3cc(ccc31)-c1csc(n1)CC(NC(=O)C1CC1C)C(=O)N1CCCC(N1)C(=O)OCC(C)(C)C2,IC50,second compound 0.000949 µM,14.6 nM
same,IC50,second compound 0.003 µM,2.4 nM
same,IC50,second compound 0.00949 µM,< 0.949 nM
same,IC50,second compound 0.03 µM,< 0.949 nM
same,IC50,second compound 0.0949 µM,< 0.949 nM
same,IC50,second compound 0.3 µM,< 0.949 nM
same,"viability, T/C","second compound 0.000949 µM, first compound 0.000949 µM",65.1%
same,"viability, T/C","second compound 0.000949 µM, first compound 0.003 µM",61.3%
same,"viability, T/C","second compound 0.000949 µM, first compound 0.00949 µM",54.6%
same,"viability, T/C","second compound 0.000949 µM, first compound 0.03 µM",43%
same,"viability, T/C","second compound 0.000949 µM, first compound 0.0949 µM",36.9%
same,"viability, T/C","second compound 0.000949 µM, first compound 0.3 µM",39.2%
same,"viability, T/C","second compound 0.003 µM, first compound 0.000949 µM",52.9%
same,"viability, T/C","second compound 0.003 µM, first compound 0.003 µM",54%
same,"viability, T/C","second compound 0.003 µM, first compound 0.00949 µM",44.6%
same,"viability, T/C","second compound 0.003 µM, first compound 0.03 µM",31.3%
same,"viability, T/C","second compound 0.003 µM, first compound 0.0949 µM",34.4%
same,"viability, T/C","second compound 0.003 µM, first compound 0.3 µM",34.2%
same,"viability, T/C","second compound 0.00949 µM, first compound 0.000949 µM",30.3%
same,"viability, T/C","second compound 0.00949 µM, first compound 0.003 µM",30.4%
same,"viability, T/C","second compound 0.00949 µM, first compound 0.00949 µM",25.7%
same,"viability, T/C","second compound 0.00949 µM, first compound 0.03 µM",22.8%
same,"viability, T/C","second compound 0.00949 µM, first compound 0.0949 µM",19.2%
same,"viability, T/C","second compound 0.00949 µM, first compound 0.3 µM",23.6%
same,"viability, T/C","second compound 0.03 µM, first compound 0.000949 µM",18.7%
same,"viability, T/C","second compound 0.03 µM, first compound 0.003 µM",18.3%
same,"viability, T/C","second compound 0.03 µM, first compound 0.00949 µM",15.3%
same,"viability, T/C","second compound 0.03 µM, first compound 0.03 µM",14%
same,"viability, T/C","second compound 0.03 µM, first compound 0.0949 µM",13%
same,"viability, T/C","second compound 0.03 µM, first compound 0.3 µM",13.6%
same,"viability, T/C","second compound 0.0949 µM, first compound 0.000949 µM",15.6%
same,"viability, T/C","second compound 0.0949 µM, first compound 0.003 µM",15.6%
same,"viability, T/C","second compound 0.0949 µM, first compound 0.00949 µM",9.83%
same,"viability, T/C","second compound 0.0949 µM, first compound 0.03 µM",10.4%
same,"viability, T/C","second compound 0.0949 µM, first compound 0.0949 µM",10.7%
same,"viability, T/C","second compound 0.0949 µM, first compound 0.3 µM",8.29%
same,"viability, T/C","second compound 0.3 µM, first compound 0.000949 µM",16.3%
same,"viability, T/C","second compound 0.3 µM, first compound 0.003 µM",13.9%
same,"viability, T/C","second compound 0.3 µM, first compound 0.00949 µM",12.5%
same,"viability, T/C","second compound 0.3 µM, first compound 0.03 µM",9.35%
same,"viability, T/C","second compound 0.3 µM, first compound 0.0949 µM",7.69%
same,"viability, T/C","second compound 0.3 µM, first compound 0.3 µM",7.08%
C=CC(=O)Nc1cc(Nc2nccc(-c3cn(C)c4ccccc34)n2)c(OC)cc1N(C)CCN(C)C + CCn1c(-c2cccnc2C(C)OC)c2c3cc(ccc31)N1CCOC(CC(NC(=O)C(C(C)C)N(C)C(=O)C3(F)CCN(C(=O)C#CC(C)(C)N(C)C)CC3)C(=O)N3CCCC(N3)C(=O)OCC(C)(C)C2)C1,IC50,second compound 0.000949 µM,> 1000 nM
same,IC50,second compound 0.003 µM,> 1000 nM
same,IC50,second compound 0.00949 µM,> 1000 nM
same,IC50,second compound 0.03 µM,> 1000 nM
same,IC50,second compound 0.0949 µM,> 1000 nM
same,IC50,second compound 0.3 µM,> 1000 nM
same,"viability, T/C",[1],102%
same,"viability, T/C",[2],97.7%
same,"viability, T/C",[3],99.6%
same,"viability, T/C",[4],103%
same,"viability, T/C",[5],87.2%
same,"viability, T/C",[6],84%
same,"viability, T/C",[7],102%
same,"viability, T/C",[8],91.1%
same,"viability, T/C",[9],90.9%
same,"viability, T/C",[10],91.9%
same,"viability, T/C",[11],93.8%
same,"viability, T/C",[12],83.2%
same,"viability, T/C",[13],96.9%
same,"viability, T/C",[14],92.8%
same,"viability, T/C",[15],94.2%
same,"viability, T/C",[16],96.5%
same,"viability, T/C",[17],100%
same,"viability, T/C",[18],84.3%
same,"viability, T/C",[19],86.4%
same,"viability, T/C",[20],92.8%
same,"viability, T/C",[21],96.3%
same,"viability, T/C",[22],86.4%
same,"viability, T/C",[23],93%
same,"viability, T/C",[24],86.1%
same,"viability, T/C",[25],94.2%
same,"viability, T/C",[26],94.8%
same,"viability, T/C",[27],85.3%
same,"viability, T/C",[28],97.3%
same,"viability, T/C",[29],106%
same,"viability, T/C",[30],86.4%
same,"viability, T/C",[31],85.1%
same,"viability, T/C",[32],88%
same,"viability, T/C",[33],96.7%
same,"viability, T/C",[34],88.7%
same,"viability, T/C",[35],97%
same,"viability, T/C",[36],73.8%
O=C(c1ccc(F)c(F)c1Nc1ccc(I)cc1F)N1CC(O)([C@@H]2CCCCN2)C1 + CCn1c(-c2cccnc2C(C)OC)c2c3cc(ccc31)N1CCOC(CC(NC(=O)C(C(C)C)N(C)C(=O)C3(F)CCN(C(=O)C#CC(C)(C)N(C)C)CC3)C(=O)N3CCCC(N3)C(=O)OCC(C)(C)C2)C1,IC50,second compound 0.000949 µM,47.7 nM
same,IC50,second compound 0.003 µM,53.4 nM
same,IC50,second compound 0.00949 µM,45.5 nM
same,IC50,second compound 0.03 µM,51.9 nM
same,IC50,second compound 0.0949 µM,46.1 nM
same,IC50,second compound 0.3 µM,40.6 nM
same,"viability, T/C",[1],91.2%
same,"viability, T/C",[2],74.1%
same,"viability, T/C",[3],60%
same,"viability, T/C",[4],35.2%
same,"viability, T/C",[5],17%
same,"viability, T/C",[6],1.9%
same,"viability, T/C",[7],85.9%
same,"viability, T/C",[8],73.5%
same,"viability, T/C",[9],60.6%
same,"viability, T/C",[10],39.1%
same,"viability, T/C",[11],16.4%
same,"viability, T/C",[12],2.12%
same,"viability, T/C",[13],88%
same,"viability, T/C",[14],74.6%
same,"viability, T/C",[15],57.7%
same,"viability, T/C",[16],34.5%
same,"viability, T/C",[17],15.9%
same,"viability, T/C",[18],1.1%
same,"viability, T/C",[19],79.2%
same,"viability, T/C",[20],86.5%
same,"viability, T/C",[21],55.3%
same,"viability, T/C",[22],36.6%
same,"viability, T/C",[23],14.8%
same,"viability, T/C",[24],1.32%
same,"viability, T/C",[25],78.3%
same,"viability, T/C",[26],73.4%
same,"viability, T/C",[27],55.4%
same,"viability, T/C",[28],36.5%
same,"viability, T/C",[29],16.3%
same,"viability, T/C",[30],3.86%
same,"viability, T/C",[31],81.3%
same,"viability, T/C",[32],66.4%
same,"viability, T/C",[33],56.3%
same,"viability, T/C",[34],35.5%
same,"viability, T/C",[35],14.2%
same,"viability, T/C",[36],0.95%
